Measured values taken from paper PMC6724035, “Evaluation of Tumor-Targeting Properties of an Antagonistic Bombesin Analogue RM26 Conjugated with a Non-Residualizing Radioiodine Label Comparison with a Radiometal-Labelled Counterpart” (Pharmaceutics, 2019).
Marks after values point to notes of the source that are not given here. Where no end group is shown, it is not given here.

Tests used:
GRPR [1] = molecular target: GRPR (Homo sapiens, UniProt P30550); assay: biochemical
Protocol: All experiments were performed in triplicate and 1 × 10^6 cells/dish were seeded one day before the experiment.

[2] = system: GRPR-expressing PC-3 tumour xenograft; conditions: 0.5 h after injection; co-injection of non-labelled NOTA-PEG4-RM26
Protocol: (§1) Animal studies were planned and performed in agreement with EU Directive 2010/63/EU for animal experiments and Swedish national legislation concerning protection of laboratory animals. Experiments were approved by the Ethics Committee for Animal Research in Uppsala (C4/16, 26 February 2016). Biodistribution studies were performed in female BALB/C nu/nu mice purchased from Scanbur A/S (Karlslunde, Denmark). GRPR-expressing xenografts were established by subcutaneous injection of 5 × 10^6 PC-3 cells/mouse in the right hind leg of mice 3 weeks before the experiment. The animals were randomized into groups of four mice for each data point.
Mice were euthanized followed by dislocation of their neck at 0.5 h after injection and blood samples were collected by heart puncture. At 3 and 24 h after injection, mice were euthanized by an intraperitoneal injection of anaesthetic solution (20 µL of solution per gram of body weight: Ketalar, 10 mg/mL; Rompun, 1 mg/mL) followed by heart puncture. […] The organ radioactivity was measured in a gamma-counter and uptake values of organs were calculated as percentage of injected dose per gram tissue (% ID/g). To test the in vivo binding specificity, a group of mice was co-injected with 7.5 nmol of non-labelled peptide (NOTA-PEG4-RM26), and biodistribution was measured at 0.5 h after injection.

[3] = Protocol: Lipophilicity was determined as the logarithm of partition coefficient, logP, of the radiolabelled compound between n-octanol and water. To determine the lipophilicity of both radioconjugates, 500 µL of n-octanol was added to a tube containing the same volume of Milli-Q water. 1 pmol (10 kBq) of radioconjugate was added. The mixture was vigorously vortexed for 1–2 min and then centrifuged. Aliquots of 100 μL were taken from each phase and their radioactivity was measured by an automated gamma-counter. The partition coefficient was calculated as the average log of a ratio of the radioactivity in organic and aqueous fractions. Each measurement was repeated in triplicate.
in vivo = conditions: mouse, iv, 40 pmol, Uptake, 40 pmol i.v.; for tissue uptake at 0.5 h: 0.5 h after injection; for tissue uptake at 3 h: 3 h after injection; for tissue uptake at 24 h: 24 h after injection
Protocol: as §1
(§2) Mice were euthanized followed by dislocation of their neck at 0.5 h after injection and blood samples were collected by heart puncture. At 3 and 24 h after injection, mice were euthanized by an intraperitoneal injection of anaesthetic solution (20 µL of solution per gram of body weight: Ketalar, 10 mg/mL; Rompun, 1 mg/mL) followed by heart puncture. Salivary glands, thyroid, lung, liver, spleen, pancreas, stomach, small intestine, kidneys, tumour, muscle, and bone were collected and weighed. The organ radioactivity was measured in a gamma-counter and uptake values of organs were calculated as percentage of injected dose per gram tissue (% ID/g). To test the in vivo binding specificity, a group of mice was co-injected with 7.5 nmol of non-labelled peptide (NOTA-PEG4-RM26), and biodistribution was measured at 0.5 h after injection.

[4] = system: GRPR-expressing PC-3 tumour xenograft; assay: in vivo; conditions: 0.5 h after injection; 40 pmol i.v.; non-blocked
Protocol: as §1, §2

GRPR [5] = system: GRPR; set-up: method as in PMID 16818949, PMID 7876231; conditions: within 20–40 min; cited from earlier work
[6] = small intestine, small intestine

Chain of GRPR (Homo sapiens, UniProt P30550) (P30550 whole entry): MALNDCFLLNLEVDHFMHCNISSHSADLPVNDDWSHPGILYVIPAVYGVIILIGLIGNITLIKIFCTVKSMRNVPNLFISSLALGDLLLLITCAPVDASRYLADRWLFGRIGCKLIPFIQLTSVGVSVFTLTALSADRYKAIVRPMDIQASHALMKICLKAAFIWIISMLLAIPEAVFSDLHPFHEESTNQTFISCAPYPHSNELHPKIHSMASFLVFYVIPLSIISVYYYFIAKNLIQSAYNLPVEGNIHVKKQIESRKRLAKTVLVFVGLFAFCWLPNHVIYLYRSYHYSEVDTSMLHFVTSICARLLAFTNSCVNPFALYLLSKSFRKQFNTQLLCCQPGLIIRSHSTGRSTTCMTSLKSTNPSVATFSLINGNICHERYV

CC(C)C[C@H](NC(=O)C[C@H](O)[C@H](CC(C)C)NC(=O)[C@H](Cc1c[nH]cn1)NC(=O)CNC(=O)[C@@H](NC(=O)[C@H](C)NC(=O)[C@H](Cc1c[nH]c2ccccc12)NC(=O)[C@H](CCC(N)=O)NC(=O)[C@@H](Cc1ccccc1)NC(=O)COCCOCCNC(=O)[C@@H](N)Cc1ccc(O)cc1)C(C)C)C(N)=O [Tyr-PEG2-RM26, Tyrosine-PEG2-[D-Phe^6, Sta^13, Leu^14] bombesin[6–14]]
IC50 (GRPR [1]): 1.7 ± 0.3 nM

CC(C)C[C@H](NC(=O)C[C@H](O)[C@H](CC(C)C)NC(=O)[C@H](Cc1c[nH]cn1)NC(=O)CNC(=O)[C@@H](NC(=O)[C@H](C)NC(=O)[C@H](Cc1c[nH]c2ccccc12)NC(=O)[C@H](CCC(N)=O)NC(=O)[C@@H](Cc1ccccc1)NC(=O)COCCOCCNC(=O)CN1CCN(CC(=O)O)CCN(CC(=O)O)CCN(CC(=O)O)CC1)C(C)C)C(N)=O [[^111In]In-DOTA-PEG2-RM26, metal not drawn, reference compound]
Uptake in pancreas, blocked vs non-blocked group [2]: significant (p < 0.05) reduction
logP [3]: -2.6 ± 0.4
tissue uptake at 0.5 h (in vivo; blood, blood): 2.1 ± 0.8 %ID/g
tissue uptake at 3 h (in vivo; blood, blood): 0.03 %ID/g
tissue uptake at 24 h (in vivo; blood, blood): 0.006 ± 0.002 %ID/g
tissue uptake at 0.5 h (in vivo; bone, bone): 0.6 ± 0.3 %ID/g
tissue uptake at 3 h (in vivo; bone, bone): 0.05 ± 0.02 %ID/g
tissue uptake at 0.5 h (in vivo; kidney, kidney): 9.1 ± 2.9 %ID/g
tissue uptake at 3 h (in vivo; kidney, kidney): 2.4 ± 0.3 %ID/g
tissue uptake at 0.5 h (in vivo; liver, liver): 0.8 ± 0.2 %ID/g
tissue uptake at 3 h (in vivo; liver, liver): 0.2 %ID/g
tissue uptake at 24 h (in vivo; liver, liver): 0.1 %ID/g
tissue uptake at 0.5 h (in vivo; lung, lung): 1.8 ± 0.4 %ID/g
tissue uptake at 3 h (in vivo; lung, lung): 0.1 %ID/g
tissue uptake at 0.5 h (in vivo; muscle, muscle): 0.4 ± 0.1 %ID/g
tissue uptake at 3 h (in vivo; muscle, muscle): 0.02 %ID/g
tissue uptake at 0.5 h (in vivo; pancreas, pancreas): 6.5 ± 1.4 %ID/g
tissue uptake at 3 h (in vivo; pancreas, pancreas): 0.2 %ID/g
tissue uptake at 0.5 h (in vivo; salivary gland, salivary gland): 0.8 ± 0.2 %ID/g
tissue uptake at 3 h (in vivo; salivary gland, salivary gland): 0.07 ± 0.02 %ID/g
tissue uptake at 0.5 h (in vivo; [6]): 1.5 ± 0.5 %ID/g
tissue uptake at 3 h (in vivo; [6]): 0.2 ± 0.1 %ID/g
tissue uptake at 0.5 h (in vivo; spleen, spleen): 0.6 ± 0.2 %ID/g
tissue uptake at 3 h (in vivo; spleen, spleen): 0.1 %ID/g
tissue uptake at 0.5 h (in vivo; stomach, stomach): 2.9 ± 1.1 %ID/g
tissue uptake at 0.5 h (in vivo; thyroid, thyroid): 1.1 ± 0.5 %ID/g
tissue uptake at 3 h (in vivo; thyroid, thyroid): 0.1 %ID/g
tissue uptake at 0.5 h (in vivo; tumour, tumour, non-blocked): 13 ± 5 %ID/g
tissue uptake at 3 h (in vivo; tumour, tumour): 9.6 ± 0.6 %ID/g
tissue uptake at 24 h (in vivo; tumour, tumour): 3.6 ± 1.3 %ID/g
Uptake, tumour [4]: 13.2 ± 4.8 ^a,h % ID/g

[^125I]I-GRP: agonistic radioiodinated gastrin-releasing peptide (VPLPAGGGTVLTKMYPRGNHWAVGHLM; ends and bridges not checked; also: 125I radioiodination, position not given here; UniProt P07492 24-50, looked up)
Internalization (GRPR [5]): 75–80%
